What was measured:
[1] = Solubility in toluene at 60° C.; type: physicochemical
Procedure: The solubility of Cn-DNTTs (Cn=a linear alkyl chain) are very low in organic solvents (up to ˜80 mg/L in toluene at 60° C.) (see: Adv. Mater. 2011, 23, 1222-1225).

CCCC(C)c1ccc2cc3c(cc2c1)sc1c2cc4ccc(C(C)CCC)cc4cc2sc31 (stereo not shown) [2,9-1MB-DNTT, 2,9-Bis(1-methylbutyl)dinaphtho [2,3-b:2′,3′-f]thieno[3,2-b]thiophene]
melting point: 280 to 281 °C

CCCCC(C)c1ccc2cc3c(cc2c1)sc1c2cc4ccc(C(C)CCCC)cc4cc2sc31 (stereo not shown) [2,9-1MP-DNTT, 2,9-Bis(1-methylpentyl)dinaphtho[2,3-b:2′,3′-f]thieno[3,2-b]thiophene]
melting point: 262 to 263 °C | solubility ([1]; in toluene at 60° C.): about 50 g/L | solubility relative to corresponding linear alkyl chain DNTT compounds ([1]; toluene at 60° C., times higher): > 500 times

From US9911927B2, “Compounds having semiconducting properties and related compositions and devices” (Flexterra, Inc., priority 2011, dated 2018)
